Test results: PMC6768916, “Population pharmacokinetics of fedratinib in patients with myelofibrosis, polycythemia vera, and essential thrombocythemia” (Cancer Chemotherapy and Pharmacology, 2019)
Entries after “also recorded” stand apart in the source; their conditions may differ. Where two headings read alike, the source gives them in different places.

Legend:
wild-type JAK2 = tested on: wild-type JAK2; design: method as in PMID 18394554; settings: cited from earlier work
[1] = cited from earlier work
FLT3 = tested on: FLT3; design: method as in PMID 18394554; settings: cited from earlier work
[2] = human, in vivo; cited from earlier work
[3] = tested on: JAK2 V617F-driven aberrant human PV progenitor erythroid differentiation; design: method as in PMID 18394555; settings: cited from earlier work
[4] = tested on: activated mutant JAK2 V617F; design: method as in PMID 18394554; settings: cited from earlier work
[5] = population pharmacokinetic model in patients with MF, PV or ET; type: in vivo, human
Procedure: The population PK analysis utilized data from one phase 1 study (TED12037 [NCT00631462]), four phase 2 studies (ARD11936 [NCT01420770], ARD12042 [NCT01420783], ARD12181 [NCT01523171], ARD12888 [NCT01692366]) and one phase 3 study (EFC12153 [NCT01437787]). Study design, dosing regimen, and PK sampling information are presented in Supplementary Table 1. These studies were conducted in accordance with the Declaration of Helsinki and the International Council for Harmonisation Guideline for Good Clinical Practice (ICH E6). Written informed consent was obtained from all subjects.
Concentrations of fedratinib in plasma were determined using a validated high-performance liquid chromatography with tandem mass spectrometric detection, with good accuracy (− 6.75–8.8%) and precision (4.84–13.11%). The lower limit of quantification was 1 ng/mL, and the calibration range was 1–1000 ng/mL.
Population PK analyses were conducted using a nonlinear mixed-effect modeling approach, as implemented in the NONMEM software version 7.3.0 (ICON Development Solutions, Ellicott City, MD). Plotting of NONMEM outputs was conducted using the R software (version 3.4.1) and RStudio (version 1.1.456, Boston, MA).
In the development of the structural model, one- to three-compartment models with first-order elimination and different absorption models including first-order absorption with and without lag time, zero-order absorption and transit compartment model were tested to fit the plasma concentration-time data. First-order conditional estimation (FOCE) with interaction method was used for parameter estimation, with natural logarithm-transformed plasma fedratinib concentration data. The inter-subject variability was modeled assuming a log-normal distribution. Residual variability was modeled using an additive model. The model selection was based on the objective function value (OFV) using the log-likelihood ratio test, the goodness of fit criteria and visual predictive check (VPC). Covariate model building was carried out using a stepwise procedure, with significance levels set to 0.01 and 0.001 for the forward inclusion and backward elimination steps, respectively. Missing baseline covariates were imputed as the median value in the study population.
Stability of the final PK parameter estimates and the 95% confidence interval (CI) for the parameters were evaluated using the nonparametric bootstrap approach. With this approach, 500 datasets of size equal to the original dataset were generated by random resampling with replacement from the original dataset. The final model was fit to each of the 500 bootstrap datasets and all the model parameters were estimated for each dataset. The median and nonparametric 95% CI (2.5–97.5 percentiles) of the 500 estimates were calculated for each parameter. The ability of the final population PK model to describe the observed concentration data was evaluated by simulating 200 datasets having the same doses, dosing schedules and sampling times as the original dataset and by performing prediction-corrected VPC [18]. The 5th, 50th and 95th prediction percentiles of the fedratinib concentrations at each binned time point were computed for each simulated trial. Thereafter, the nonparametric 90% CI of the 5th, 50th and 95th prediction percentiles at each binned time point were calculated for the 200 simulated trials.

[6] = final model, inter-individual variability

## Cc1cnc(Nc2ccc(OCCN3CCCC3)cc2)nc1Nc1cccc(S(=O)(=O)NC(C)(C)C)c1 [fedratinib, Fedratinib]
wild-type JAK2
  selectivity for JAK2 over JAK1, JAK3 and TYK2: selective for JAK2 over JAK1, JAK3 and TYK2
wild-type JAK2; wild-type JAK2
  IC50: 3 nM
[1]; 300–500 mg at steady state
  dose proportionality of exposure: approximately dose-proportional
[1]; 300–500 mg once daily, steady state
  mean accumulation ratio: 2.95–3.88
[1]; human, in vivo, po
  time to peak plasma concentration: 0.5 to 4 h
[1]; human, in vivo
  dose proportionality of exposure: greater than dose-proportional increase
[1]; once daily dosing
  time to steady state of plasma levels: ≤ 15 days
FLT3
  IC50: 15 nM
[2]
  CL/F of healthy subjects: 20.7 to 46.0 L/h
  dose proportionality of exposure: greater than dose-proportional increase
  mean terminal half-life: 62 to 78 h
[3]
  inhibition of JAK2 V617F-driven aberrant human PV progenitor erythroid differentiation: significantly inhibits
[4]
  IC50: 3 nM
[5]; 30 ≤ CLcr < 60 mL/min vs CLcr ≥ 90 mL/min
  increase in exposure (steady-state AUC) with moderate renal impairment vs normal renal function: 37%
[5]; 60 ≤ CLcr < 90 mL/min vs CLcr ≥ 90 mL/min
  increase in exposure (steady-state AUC) with mild renal impairment vs normal renal function: 10%
[5]; CLcr = 78.5 mL/min
  apparent clearance of a typical PV patient: 20.0 L/h
[5]; MF patients, severe renal impairment, N = 3
  increase in typical AUC with severe renal impairment vs normal renal function: 59%
[5]; base model
  typical value of CL/F, base model: 13.6 L/h
  typical value of V2/F, base model: 340 L
[5]; body weight 39.5 to 135 kg
  magnitude of changes in V2/F by body weight: less than 30%
[5]; covariate analysis
  magnitude of changes in V2/F by dose: less than 30%
[5]; doses of 200 mg and above
  linearity of PK with dose: linear, time-invariant PK; also recorded: increased linearly
[5]; final model
  CL/F higher in PV patients compared to MF or ET patients: 54%
  CL/F of a typical MF patient: 13.0 L/h
  TVCL/F, parameter estimate: 13.0 L/h
  TVKa, parameter estimate: 1.57 h⁻¹
  TVQ/F, parameter estimate: 45.2 L/h
  TVV2/F, parameter estimate: 311 L
  TVV3/F, parameter estimate: 1460 L
  V2/F higher in PV patients compared to MF or ET patients: 87%
  fold higher CL/F in PV patients compared to MF or ET patients: 1.54 fold
  fold higher V2/F in PV patients compared to MF or ET patients: 1.87 fold
[5]; final model, 484 of 500 bootstrap replicates
  TVCL/F, bootstrap median (95% CI): 13.1 (12.4 to 13.9) L/h
[5]; final model, absorption lag time
  TVALAG1, parameter estimate: 0.265 h
[5]; final model, bootstrap
  COVCL/F-V2/F, bootstrap median (95% CI): 0.193 (0.145 to 0.249)
  PV on V2/F, bootstrap median (95% CI): 1.85 (1.40 to 2.42)
  TVALAG1, bootstrap median (95% CI): 0.265 (0.264 to 0.321) h
  TVKa, bootstrap median (95% CI): 1.64 (1.34 to 2.05) h^−1
  TVQ/F, bootstrap median (95% CI): 45.2 (38.5 to 52.9) L/h
  TVV2/F, bootstrap median (95% CI): 313 (282 to 343) L
  TVV3/F, bootstrap median (95% CI): 1470 (1190 to 1790) L
  Weight on V2/F, bootstrap median (95% CI): 0.733 (0.383 to 1.10)
  σ^2 (Log additive), bootstrap median (95% CI): 0.194 (0.159 to 0.264)
  ω^2, Ka, bootstrap median (95% CI): 1.09 (0.728 to 1.54)
  ω^2, V2/F, bootstrap median (95% CI): 0.371 (0.247 to 0.510)
[5]; final model, covariance
  COVCL/F-V2/F, parameter estimate: 0.197
[5]; final model, covariate factor if PV
  PV on V2/F, parameter estimate: 1.87
[5]; final model, exponent of (Weight/70.1)
  Weight on V2/F, parameter estimate: 0.727
[5]; [6]
  ω^2, Ka, parameter estimate: 1.07
  ω^2, V2/F, parameter estimate: 0.383
[5]; final model, residual variability
  σ^2 (Log additive), parameter estimate: 0.201
[5]; population PK covariate analysis
  effect of age, body weight, sex, race and liver function on exposure/PK: No clinically meaningful effect
